According to ChEMBL document CHEMBL2021782, “Drug-to-genome-to-drug, step 2: reversing selectivity in a series of antiplasmodial compounds” (J Med Chem, 2012):

Assays:
[1] = Selectivity ratio of CC50 for human MRC5 SV2 cells to IC50 for chloroquine-sensitive Plasmodium falciparum GHA strain; type: ADME, cell-based; settings: read-out: Ratio CC50/IC50
[2] = system: Plasmodium falciparum; experiment: Antiplasmodial activity against chloroquine-sensitive Plasmodium falciparum GHA infected in human erythrocytes after 72 hrs using malstat staining by spectrophotometry; type: functional, organism-based
[3] = Cytotoxicity against human MRC5 SV2 cells after 72 hrs using resazurin by fluorimetry; type: cell-based
[4] = Selectivity index, ratio of IC50 for chloroquine-sensitive Plasmodium falciparum GHA to IC50 for bovine PDE5
[5] = biological target: cGMP-specific 3',5'-cyclic phosphodiesterase (Bos taurus, UniProt Q28156); experiment: Inhibition of bovine PDE5 after 24 hrs by time-resolved fluorescence resonance energy transfer assay
[6] = biological target: High affinity 3',5'-cyclic-AMP phosphodiesterase 7A (Homo sapiens) (UniProt Q13946); experiment: Inhibition of human recombinant PDE7A expressed in Sf9 cells at 10 uM after 30 mins by HTRF assay
Chain of High affinity 3',5'-cyclic-AMP phosphodiesterase 7A (Homo sapiens) (Q13946 whole entry): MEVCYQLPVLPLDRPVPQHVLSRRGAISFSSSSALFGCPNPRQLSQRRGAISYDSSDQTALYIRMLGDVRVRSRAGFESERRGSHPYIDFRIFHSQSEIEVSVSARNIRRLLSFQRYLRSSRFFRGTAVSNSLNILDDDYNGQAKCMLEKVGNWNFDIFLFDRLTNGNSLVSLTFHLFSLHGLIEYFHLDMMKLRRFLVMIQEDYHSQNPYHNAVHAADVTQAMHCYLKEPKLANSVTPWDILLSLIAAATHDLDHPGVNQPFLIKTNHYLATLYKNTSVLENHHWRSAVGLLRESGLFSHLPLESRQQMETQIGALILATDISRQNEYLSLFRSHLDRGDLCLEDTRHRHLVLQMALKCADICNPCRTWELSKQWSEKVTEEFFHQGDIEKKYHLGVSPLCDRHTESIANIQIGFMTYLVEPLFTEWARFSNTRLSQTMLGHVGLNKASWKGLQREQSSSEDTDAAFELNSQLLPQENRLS

[7] = biological target: Dual 3',5'-cyclic-AMP and -GMP phosphodiesterase 11A (Homo sapiens) (UniProt Q9HCR9); experiment: Inhibition of human recombinant PDE11A4 expressed in Sf9 cells at 10 uM after 30 mins by HTRF assay
Chain of Dual 3',5'-cyclic-AMP and -GMP phosphodiesterase 11A (Homo sapiens) (Q9HCR9 whole entry, looked up): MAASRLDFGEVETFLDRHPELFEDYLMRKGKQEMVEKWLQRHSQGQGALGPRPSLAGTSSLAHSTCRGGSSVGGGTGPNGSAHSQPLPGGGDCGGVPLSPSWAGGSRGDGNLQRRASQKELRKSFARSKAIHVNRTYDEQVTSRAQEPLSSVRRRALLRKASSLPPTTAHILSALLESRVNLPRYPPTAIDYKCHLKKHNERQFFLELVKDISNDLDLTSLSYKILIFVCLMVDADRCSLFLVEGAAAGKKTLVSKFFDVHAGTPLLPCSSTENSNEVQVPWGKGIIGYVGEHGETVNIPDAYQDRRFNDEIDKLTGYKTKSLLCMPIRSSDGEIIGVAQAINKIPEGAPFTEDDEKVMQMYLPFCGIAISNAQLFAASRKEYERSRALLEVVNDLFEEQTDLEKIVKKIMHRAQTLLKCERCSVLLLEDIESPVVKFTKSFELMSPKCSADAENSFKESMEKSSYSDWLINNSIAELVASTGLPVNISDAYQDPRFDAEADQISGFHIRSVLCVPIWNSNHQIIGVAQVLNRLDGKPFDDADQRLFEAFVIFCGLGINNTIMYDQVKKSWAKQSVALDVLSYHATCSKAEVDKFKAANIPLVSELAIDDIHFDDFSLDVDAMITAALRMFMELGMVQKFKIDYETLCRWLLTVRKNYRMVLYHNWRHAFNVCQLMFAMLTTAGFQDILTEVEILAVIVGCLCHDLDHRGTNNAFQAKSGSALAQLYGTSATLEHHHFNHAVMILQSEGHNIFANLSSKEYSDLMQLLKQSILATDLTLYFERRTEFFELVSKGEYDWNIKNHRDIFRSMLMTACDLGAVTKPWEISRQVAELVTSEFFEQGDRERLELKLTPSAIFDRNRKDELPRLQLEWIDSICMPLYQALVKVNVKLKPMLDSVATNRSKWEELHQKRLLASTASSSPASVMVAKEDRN

[8] = biological target: cGMP-specific 3',5'-cyclic phosphodiesterase (Homo sapiens) (UniProt O76074); settings: 10 uM
Description: Inhibition of human PDE5 using [3H]5GMP at 10 uM after 60 mins by scintillation counting

[9] = biological target: cAMP and cAMP-inhibited cGMP 3',5'-cyclic phosphodiesterase 10A (Homo sapiens) (UniProt Q9Y233); experiment: Inhibition of human recombinant PDE10A1 expressed in Sf9 cells at 10 uM after 30 mins by HTRF assay
Chain of cAMP and cAMP-inhibited cGMP 3',5'-cyclic phosphodiesterase 10A (Homo sapiens) (Q9Y233 whole entry): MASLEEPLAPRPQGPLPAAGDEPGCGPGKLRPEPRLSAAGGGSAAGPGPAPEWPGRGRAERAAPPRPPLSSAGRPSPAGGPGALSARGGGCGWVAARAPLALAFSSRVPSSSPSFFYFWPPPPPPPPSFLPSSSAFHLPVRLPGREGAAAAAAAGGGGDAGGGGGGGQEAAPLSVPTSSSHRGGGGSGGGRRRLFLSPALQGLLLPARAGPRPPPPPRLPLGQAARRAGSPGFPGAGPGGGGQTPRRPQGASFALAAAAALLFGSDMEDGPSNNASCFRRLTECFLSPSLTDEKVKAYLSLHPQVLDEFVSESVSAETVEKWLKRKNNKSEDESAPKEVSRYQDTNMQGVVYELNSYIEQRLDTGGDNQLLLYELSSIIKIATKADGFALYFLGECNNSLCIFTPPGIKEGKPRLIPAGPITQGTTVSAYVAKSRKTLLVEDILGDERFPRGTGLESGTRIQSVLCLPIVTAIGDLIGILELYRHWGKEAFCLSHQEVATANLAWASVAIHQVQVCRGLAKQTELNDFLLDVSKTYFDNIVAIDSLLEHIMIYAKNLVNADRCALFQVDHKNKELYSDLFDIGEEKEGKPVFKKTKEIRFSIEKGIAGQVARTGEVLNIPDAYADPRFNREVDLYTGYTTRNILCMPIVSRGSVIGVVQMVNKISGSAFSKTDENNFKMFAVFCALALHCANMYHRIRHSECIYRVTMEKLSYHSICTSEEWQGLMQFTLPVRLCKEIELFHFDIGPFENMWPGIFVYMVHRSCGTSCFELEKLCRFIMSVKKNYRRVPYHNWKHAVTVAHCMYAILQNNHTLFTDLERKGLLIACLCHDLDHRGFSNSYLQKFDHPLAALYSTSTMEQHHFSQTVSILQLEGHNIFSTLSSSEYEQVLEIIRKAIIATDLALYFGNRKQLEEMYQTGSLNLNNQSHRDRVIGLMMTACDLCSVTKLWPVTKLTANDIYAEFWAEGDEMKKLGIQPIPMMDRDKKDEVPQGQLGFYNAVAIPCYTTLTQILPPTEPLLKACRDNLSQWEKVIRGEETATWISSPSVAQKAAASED

[10] = biological target: High affinity cAMP-specific and IBMX-insensitive 3',5'-cyclic phosphodiesterase 8A (Homo sapiens) (UniProt O60658); experiment: Inhibition of human recombinant PDE8A1 expressed in Sf9 cells at 10 uM after 30 mins by HTRF assay
[11] = organism: Bos taurus; experiment: Inhibition of bovine PDE6 using [3H]5GMP at 10 uM after 60 mins by scintillation counting
[12] = biological target: Dual specificity calcium/calmodulin-dependent 3',5'-cyclic nucleotide phosphodiesterase 1B (Homo sapiens) (UniProt Q01064); experiment: Inhibition of human recombinant PDE1B expressed in Sf9 cells at 10 uM after 30 mins by HTRF assay
Chain of Dual specificity calcium/calmodulin-dependent 3',5'-cyclic nucleotide phosphodiesterase 1B (Homo sapiens) (Q01064 whole entry): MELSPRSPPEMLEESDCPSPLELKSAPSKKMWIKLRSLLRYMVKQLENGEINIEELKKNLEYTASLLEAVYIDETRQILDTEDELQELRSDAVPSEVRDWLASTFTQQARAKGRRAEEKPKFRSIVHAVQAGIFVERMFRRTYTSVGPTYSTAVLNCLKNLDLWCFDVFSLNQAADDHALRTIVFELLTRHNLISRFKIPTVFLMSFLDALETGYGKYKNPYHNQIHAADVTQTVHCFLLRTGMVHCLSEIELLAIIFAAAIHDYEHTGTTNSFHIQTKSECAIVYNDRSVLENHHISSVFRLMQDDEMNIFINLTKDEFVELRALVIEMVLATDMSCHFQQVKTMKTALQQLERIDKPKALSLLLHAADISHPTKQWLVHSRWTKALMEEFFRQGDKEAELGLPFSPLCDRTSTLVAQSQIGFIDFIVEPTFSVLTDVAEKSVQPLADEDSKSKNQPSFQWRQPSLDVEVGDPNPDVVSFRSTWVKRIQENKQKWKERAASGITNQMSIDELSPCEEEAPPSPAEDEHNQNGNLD

[13] = biological target: cGMP-dependent 3',5'-cyclic phosphodiesterase (Homo sapiens) (UniProt O00408); experiment: Inhibition of human recombinant PDE2A expressed in Sf9 cells at 10 uM after 30 mins by HTRF assay
Chain of cGMP-dependent 3',5'-cyclic phosphodiesterase (Homo sapiens) (O00408 whole entry): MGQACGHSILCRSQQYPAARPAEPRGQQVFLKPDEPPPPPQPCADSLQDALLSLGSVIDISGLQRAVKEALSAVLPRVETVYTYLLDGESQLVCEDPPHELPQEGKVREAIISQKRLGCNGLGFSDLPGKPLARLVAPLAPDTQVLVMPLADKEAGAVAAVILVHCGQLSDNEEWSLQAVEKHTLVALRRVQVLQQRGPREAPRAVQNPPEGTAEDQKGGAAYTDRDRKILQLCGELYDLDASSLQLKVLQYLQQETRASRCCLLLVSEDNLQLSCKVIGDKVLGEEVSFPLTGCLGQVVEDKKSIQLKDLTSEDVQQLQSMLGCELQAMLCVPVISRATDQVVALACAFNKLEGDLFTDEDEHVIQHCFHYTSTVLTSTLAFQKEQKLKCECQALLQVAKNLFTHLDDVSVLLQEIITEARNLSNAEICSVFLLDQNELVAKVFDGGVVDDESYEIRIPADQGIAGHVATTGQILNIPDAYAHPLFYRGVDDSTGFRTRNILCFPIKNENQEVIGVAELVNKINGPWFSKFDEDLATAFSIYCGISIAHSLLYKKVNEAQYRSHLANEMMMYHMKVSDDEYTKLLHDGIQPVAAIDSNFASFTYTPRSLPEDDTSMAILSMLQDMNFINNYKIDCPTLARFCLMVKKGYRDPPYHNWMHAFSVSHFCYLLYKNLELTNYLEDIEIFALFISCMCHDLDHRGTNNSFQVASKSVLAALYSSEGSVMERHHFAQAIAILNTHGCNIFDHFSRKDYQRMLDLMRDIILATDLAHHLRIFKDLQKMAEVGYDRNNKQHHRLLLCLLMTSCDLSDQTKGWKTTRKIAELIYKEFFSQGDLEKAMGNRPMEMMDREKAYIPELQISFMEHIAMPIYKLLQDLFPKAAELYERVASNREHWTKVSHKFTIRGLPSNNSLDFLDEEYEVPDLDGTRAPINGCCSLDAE

[14] = biological target: cGMP-inhibited 3',5'-cyclic phosphodiesterase 3A (Homo sapiens) (UniProt Q14432); experiment: Inhibition of human recombinant PDE3A expressed in Sf9 cells at 10 uM after 30 mins by HTRF assay
Chain of cGMP-inhibited 3',5'-cyclic phosphodiesterase 3A (Homo sapiens) (Q14432 whole entry): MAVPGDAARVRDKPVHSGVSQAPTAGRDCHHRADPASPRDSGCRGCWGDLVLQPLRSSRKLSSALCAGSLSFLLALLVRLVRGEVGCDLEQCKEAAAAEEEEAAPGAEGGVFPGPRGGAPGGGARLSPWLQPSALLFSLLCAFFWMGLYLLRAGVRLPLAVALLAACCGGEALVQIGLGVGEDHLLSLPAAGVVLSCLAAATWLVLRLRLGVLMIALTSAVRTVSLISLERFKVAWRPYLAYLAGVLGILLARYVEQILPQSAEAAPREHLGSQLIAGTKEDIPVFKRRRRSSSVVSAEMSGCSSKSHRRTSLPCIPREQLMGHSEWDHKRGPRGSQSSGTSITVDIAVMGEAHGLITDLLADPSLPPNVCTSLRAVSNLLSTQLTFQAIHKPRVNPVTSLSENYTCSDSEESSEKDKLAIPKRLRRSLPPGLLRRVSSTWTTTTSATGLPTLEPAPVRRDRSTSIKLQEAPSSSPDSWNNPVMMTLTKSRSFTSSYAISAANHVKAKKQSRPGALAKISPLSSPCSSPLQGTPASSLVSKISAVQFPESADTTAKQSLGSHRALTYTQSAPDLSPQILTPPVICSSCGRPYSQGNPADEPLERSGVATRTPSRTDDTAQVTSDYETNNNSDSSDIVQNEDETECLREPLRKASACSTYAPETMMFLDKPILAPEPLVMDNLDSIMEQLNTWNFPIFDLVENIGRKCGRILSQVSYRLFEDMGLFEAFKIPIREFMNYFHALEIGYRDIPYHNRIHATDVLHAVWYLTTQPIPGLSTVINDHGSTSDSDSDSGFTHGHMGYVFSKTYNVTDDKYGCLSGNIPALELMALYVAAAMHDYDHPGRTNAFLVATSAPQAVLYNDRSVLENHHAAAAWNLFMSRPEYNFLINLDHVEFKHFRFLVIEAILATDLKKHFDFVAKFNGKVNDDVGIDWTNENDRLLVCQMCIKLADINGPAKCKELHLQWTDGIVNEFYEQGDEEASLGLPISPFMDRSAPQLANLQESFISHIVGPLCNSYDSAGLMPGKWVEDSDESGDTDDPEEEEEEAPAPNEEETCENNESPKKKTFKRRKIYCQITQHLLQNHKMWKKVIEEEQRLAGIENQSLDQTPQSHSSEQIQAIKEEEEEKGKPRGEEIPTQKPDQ

[15] = biological target: Phosphodiesterase 4 (Homo sapiens) (UniProt P27815+Q08499+Q07343+Q08493); experiment: Inhibition of human recombinant PDE4A1A expressed in Sf9 cells at 10 uM after 30 mins by HTRF assay
[16] = Selectivity index, ratio of IC50 for chloroquine-sensitive Plasmodium falciparum K1 to IC50 for bovine PDE5
[17] = system: Plasmodium falciparum; experiment: Antiplasmodial activity against chloroquine-sensitive Plasmodium falciparum K1 infected in human erythrocytes after 72 hrs using malstat staining by spectrophotometry; type: functional, organism-based; settings: K1, 72 h

SMILES | IC50 [2] | IC50 [5] | selectivity ratio [1] | CC50 at 72 h [3] | also measured
CC(C)(C)OC(=O)NCCN1CC[C@@H](N2CC(=O)N3[C@H](c4ccc5c(c4)OCO5)c4[nH]c5ccccc5c4C[C@@H]3C2=O)C1 | 0.22 µM | 1 nM | 154 | 154 µM | Ratio IC50 [4]: 0.018
O=C1[C@H]2Cc3c([nH]c4ccccc34)[C@@H](c3ccc4c(c3)OCO4)N2C(=O)CN1[C@@H]1CCN(CCOc2ccccc2)C1 | 0.7 µM |  | 11 | 11 µM | 
CN1CC(=O)N2[C@H](c3ccc4c(c3)OCO4)c3[nH]c4ccccc4c3C[C@@H]2C1=O | > 64 µM |  |  | > 64 µM | 
O=C1[C@H]2Cc3c([nH]c4ccccc34)[C@@H](c3ccc4nsnc4c3)N2C(=O)CN1[C@@H]1CCN(Cc2ccccc2)C1 | 0.6 µM | 28 nM | 50 | 30 µM | 
COc1ccc([C@@H]2c3[nH]c4ccccc4c3C[C@@H]3C(=O)N([C@@H]4CCN(Cc5ccccc5)C4)CC(=O)N23)cc1O | 0.61 µM | 56 nM | 36 | 22 µM | 
O=C1[C@H]2Cc3c([nH]c4ccccc34)[C@@H](c3ccc4c(c3)OC(F)(F)O4)N2C(=O)CN1[C@@H]1CCN(Cc2ccccc2)C1 | 11 µM |  | 1 | 8 µM | 
O=C1[C@H]2Cc3c([nH]c4ccccc34)[C@@H](c3ccc4c(c3)OCO4)N2C(=O)CN1[C@@H]1CCN(Cc2ccccc2)C1 |  | 5 nM | 20 | 10 µM | Ratio IC50 [4]: 0.014
O=C1[C@H]2Cc3c([nH]c4ccccc34)[C@@H](c3ccc4c(c3)OCO4)N2C(=O)CN1C1CCN(Cc2ccccc2)CC1 |  |  |  | 7 µM | 
COc1ccc([C@@H]2c3[nH]c4ccccc4c3C[C@@H]3C(=O)N(C)CC(=O)N23)cc1OC | > 64 µM | > 10000 nM | > 64 | > 64 µM | 
O=C1[C@H]2Cc3c([nH]c4ccccc34)[C@@H](c3ccc4c(c3)OCO4)N2C(=O)CN1[C@@H]1CCN(CCc2ccccc2)C1 | 5.3 µM |  | 1 | 1 µM | 
O=C1[C@H]2Cc3c([nH]c4ccccc34)[C@@H](c3ccc4c(c3)OCO4)N2C(=O)CN1[C@@H]1CCN(CCCCCO)C1 | 12 µM |  | 3 | 3 µM | 
COc1ccc([C@@H]2c3[nH]c4ccccc4c3C[C@@H]3C(=O)N([C@@H]4CCN(Cc5nccn5C)C4)CC(=O)N23)cc1OC |  | 5600 nM | 37 | 37 µM | Ratio IC50 [16]: 3; IC50 [17]: 1600 nM
COc1ccc([C@@H]2c3[nH]c4ccccc4c3C[C@@H]3C(=O)N([C@@H]4CCN(CCNC(=O)OC(C)(C)C)C4)CC(=O)N23)cc1OC |  | > 10000 nM | 10 | 10 µM | Ratio IC50 [16]: > 13; IC50 [17]: 740 nM

Second part, led by results:

IC50 [2] | IC50 [5] | SMILES | selectivity ratio [1] | CC50 at 72 h [3] | also measured
11 µM |  | O=C1[C@H]2Cc3c([nH]c4ccccc34)[C@@H](c3ccc(Cl)nc3)N2C(=O)CN1[C@@H]1CCN(Cc2ccccc2)C1 | 1 | 14 µM | 
0.53 µM | 7 nM | O=C1[C@H]2Cc3c([nH]c4ccccc34)[C@@H](c3ccc4c(c3)OCO4)N2C(=O)CN1[C@@H]1CCN(Cc2ccc3c(c2)OCO3)C1 | 78 | 78 µM | Ratio IC50 [4]: 0.013
2 µM | 3 nM | CN(C)C(=O)CN1CC[C@@H](N2CC(=O)N3[C@H](c4ccc5c(c4)OCO5)c4[nH]c5ccccc5c4C[C@@H]3C2=O)C1 | > 32 | > 32 µM | 
0.9 µM |  | O=C1[C@H]2Cc3c([nH]c4ccccc34)[C@@H](c3ccc4c(c3)OCO4)N2C(=O)CN1[C@@H]1CCN(CC2CCCCC2)C1 | 7 | 7 µM | 
0.25 µM |  | O=C1[C@H]2Cc3c([nH]c4ccccc34)[C@@H](c3ccc4c(c3)OCO4)N2C(=O)CN1[C@@H]1CCN(CC2CCCC2)C1 | 22 | 22 µM | 
0.8 µM | 1 nM | Cn1ccnc1CN1CC[C@@H](N2CC(=O)N3[C@H](c4ccc5c(c4)OCO5)c4[nH]c5ccccc5c4C[C@@H]3C2=O)C1 | 50 | 50 µM | Ratio IC50 [4]: 0.003
7 µM |  | CN(C)c1ccc(CN2CC[C@@H](N3CC(=O)N4[C@H](c5ccc6c(c5)OCO6)c5[nH]c6ccccc6c5C[C@@H]4C3=O)C2)cc1 | < 1 | < 1 µM | 
7 µM |  | O=C1[C@H]2Cc3c([nH]c4ccccc34)[C@@H](c3ccc4nnnn4c3)N2C(=O)CN1[C@@H]1CCN(Cc2ccccc2)C1 | 3 | 21 µM | 
0.42 µM | 5200 nM | COc1ccc([C@@H]2c3[nH]c4ccccc4c3C[C@@H]3C(=O)N([C@@H]4CCN(Cc5ccccc5)C4)CC(=O)N23)cc1OC | 76 | 32 µM | inhibition [6]: 0%; inhibition [7]: 30%; inhibition [8]: 48%; Ratio IC50 [4]: 12.4; inhibition [9]: 0%; inhibition [10]: 3%; inhibition [11]: 18%; inhibition [12]: 0%; inhibition [13]: 0%; inhibition [14]: 1%; inhibition [15]: 1%
10 µM |  | COc1ccc(CN2CC[C@@H](N3CC(=O)N4[C@H](c5ccc6c(c5)OCO6)c5[nH]c6ccccc6c5C[C@@H]4C3=O)C2)cc1 | < 1 | < 1 µM | 
0.52 µM | > 1000 nM | COc1cc([C@@H]2c3[nH]c4ccccc4c3C[C@@H]3C(=O)N([C@@H]4CCN(Cc5ccccc5)C4)CC(=O)N23)ccc1O | 44 | 23 µM | 
5 µM |  | O=C1[C@H]2Cc3c([nH]c4ccccc34)[C@@H](c3ccc4c(c3)OCCO4)N2C(=O)CN1[C@@H]1CCN(Cc2ccccc2)C1 | > 13 | > 64 µM | 
4 µM | 2 nM | O=C1[C@H]2Cc3c([nH]c4ccccc34)[C@@H](c3ccc4c(c3)OCO4)N2C(=O)CN1[C@@H]1CCN(Cc2ccccn2)C1 | 13 | 13 µM | 
11 µM |  | O=C1[C@H]2Cc3c([nH]c4ccccc34)[C@@H](c3ccc(OC(F)F)cc3)N2C(=O)CN1[C@@H]1CCN(Cc2ccccc2)C1 | > 6 | > 64 µM | 
6 µM |  | O=C1[C@H]2Cc3c([nH]c4ccccc34)[C@@H](c3ccc4nonc4c3)N2C(=O)CN1[C@@H]1CCN(Cc2ccccc2)C1 | > 10 | > 64 µM | 
 | > 10000 nM | COc1ccc([C@@H]2c3[nH]c4ccccc4c3C[C@@H]3C(=O)N([C@@H]4CCN(Cc5ccc6c(c5)OCO6)C4)CC(=O)N23)cc1OC | 25 | 25 µM | Ratio IC50 [16]: > 10; IC50 [17]: 950 nM
12 µM |  | CCCCN1CC[C@@H](N2CC(=O)N3[C@H](c4ccc5c(c4)OCO5)c4[nH]c5ccccc5c4C[C@@H]3C2=O)C1 | < 1 | < 1 µM | 
